For this experiment, the system named is pancreatic B cell function. As to the kind of experiment: Plasma insulin response to intraperitoneal arginine after tumour resection. To be noted: plasma insulin at 0, 30 and 60 min, groups of 6 rats.

Where a name gives a salt, the structure may show the parent alone.

As for `N=C(N)NCCC[C@H](N)C(=O)O` [arginine, arginine hydrochloride], under “arginine hydrochloride 2 g kg-1 i.p. in 0.9% NaCl, ex-tumour bearing rats 1 day after resection”, the “plasma insulin response to arginine, 1 day after tumour resection” value is “failed to evoke a plasma insulin response”. Besides, the “insulin response to arginine, 12 days after tumour resection” value (arginine hydrochloride 2 g kg-1 i.p., ex-tumour bearing rats 12 days after resection) is recorded as “impaired”.

Values taken from paper PMC2001498, “Effects of transplantation and resection of a radiation-induced rat insulinoma on glucose homeostasis and the endocrine pancreas” (British Journal of Cancer, 1986).
